In patent publication US20130178488A1, “TRICYCLIC COMPOUNDS, PREPARATION METHODS, AND THEIR USES” (priority 2011, published 2013):

target: T1, recombinant human Lp-PLA2 (Homo sapiens, UniProt Q13093); assay: Recombinant human Lp-PLA2 assay (rhLp-PLA2, PED6 assay); format: biochemical; conditions: one experiment or average of multiple experiments; upper limit of the PED6 assay is pIC50 9.3
T1 sequence (Q13093 22-441): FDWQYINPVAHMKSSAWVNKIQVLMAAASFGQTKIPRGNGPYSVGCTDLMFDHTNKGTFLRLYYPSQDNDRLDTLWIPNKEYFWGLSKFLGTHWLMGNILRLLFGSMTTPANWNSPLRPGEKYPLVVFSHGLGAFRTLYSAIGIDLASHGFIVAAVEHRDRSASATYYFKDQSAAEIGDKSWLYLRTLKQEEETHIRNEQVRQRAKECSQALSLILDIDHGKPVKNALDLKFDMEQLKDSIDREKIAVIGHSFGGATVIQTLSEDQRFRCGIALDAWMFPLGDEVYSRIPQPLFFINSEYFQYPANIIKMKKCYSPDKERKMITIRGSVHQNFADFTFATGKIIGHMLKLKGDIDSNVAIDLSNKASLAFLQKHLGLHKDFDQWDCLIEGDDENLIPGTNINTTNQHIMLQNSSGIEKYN
From the text: (1) Recombinant Human Lp-PLA2 Assay (rhLp-PLA2) (Also Referred to as “PED6” Assay)
N-((6-(2,4-dinitrophenyl)amino)-hexanoyl)-2-(4,4-difluoro-5,7-dimethyl-4-bora-3a,4a-diaza-s-indacene-3-pentanoyl)-1-hexadecanoyl-sn-glycero-3-phosphoethanolamine, triethylammonium salt (PED6) is a commercially available fluorescently-labeled phospholipid, which is commercially available from Molecular Probes. There is a quenching para-nitro phenyl (PNP) group in the sn3 position and a Bodipy fluorescein (FL) group in the sn2 position. Upon cleavage with LpPLA2, the Bodipy Fl group is liberated and then may result in an increase in fluorescence. Inhibitors of LpPLA2 therefore prevent this cleavage and no fluorescent increase is observed.
The PED6 assay is run as an unquenched 10 μL assay. Compounds source plate is prepared by making 1:3 (by volume) serial dilution of the compounds into pure DMSO on 384-well microplate. Then 0.01 μL of compounds on compound source plate are transferred into 384 well Greiner 784076 (black) plates by ECHO liquid dispenser. 5 μL of recombinant human Lp-PLA2 enzyme (2 nM rhLp-PLA2 in assay buffer of 50 mM HEPES, pH7.4, 150 mM NaCl, 1 mM CHAPS) is added to each well of the plate with compounds. Plates are centrifuged for 10 sec at 500 rpm. After 30 minutes preincubation, 5 μL of substrate (4 μM PED6 [from 5 mM DMSO stock] in assay buffer of 50 mM HEPES, pH7.4, 150 mM NaCl, 1 mM CHAPS) is added to 384 well Greiner 784076 (black) plates. Plates are centrifuged for 10 sec at 500 rpm. Plate is covered to protect from light and incubated for 20 min at room temperature. Plates are read for Fluorescence intensity at ex: 480/em: 540 using ViewLux microplate imager. PIC50 data, curve and QC analysis is conducted by using XL fit module in Excel.

Row | Structure (SMILES) | IC50
1 | N#Cc1cc(COc2cc3n(c(=O)n2)CCc2cc(F)ccc2-3)ccc1Oc1ccc(C(F)(F)F)cn1 [Example 93, 5-(((9-fluoro-4-oxo-6,7-dihydro-4H-pyrimido[6,1-a]isoquinolin-2-yl)oxy)methyl)-2-((5-(trifluoromethyl)pyridin-2-yl)oxy)benzonitrile] | 1 nM
2 | N#Cc1cc(COc2cc3n(c(=O)n2)CCc2ccccc2-3)ccc1Oc1cccc(C(F)(F)F)n1 [Example 96, 5-(((4-oxo-6,7-dihydro-4H-pyrimido[6,1-a]isoquinolin-2-yl)oxy)methyl)-2-((6-(trifluoro-methyl)pyridin-2-yl)oxy)benzonitrile] | 0.794 nM
3 | COc1ccc2c(c1)CCn1c-2cc(OCc2ccc(Oc3ccc(C(F)(F)F)nc3)c(F)c2)nc1=O [Example E58, 2-((3-fluoro-4-((6-(trifluoromethyl)pyridin-3-yl)oxy)benzyl)oxy)-9-methoxy-6,7-dihydro-4H-pyrimido[6,1-a]isoquinolin-4-one] | 1 nM
4 | N#Cc1cc(COc2cc3n(c(=O)n2)CCc2ccccc2-3)ccc1Oc1ccc(Cl)c(C(F)(F)F)c1 [Example 88, 2-(4-chloro-3-(trifluoromethyl)phenoxy)-5-(((4-oxo-6,7-dihydro-4H-pyrimido[6,1-a]isoquinolin-2-yl)oxy)methyl)benzonitrile] | 0.794 nM
5 | COc1ccc2c(c1)CCn1c-2cc(OCc2ccc(Oc3ccc(C(F)(F)F)cn3)c(C#N)c2)nc1=O [Example E22, 5-(((9-Methoxy-4-oxo-6,7-dihydro-4H-pyrimido[6,1-a]isoquinolin-2-yl)oxy)methyl)-2-((5-(trifluoromethyl)pyridin-2-yl)oxy)benzonitrile] | 0.631 nM
6 | O=c1nc(OCc2cc(F)c(Oc3ccc(C(F)(F)F)nc3)c(F)c2)cc2n1CCc1ccccc1-2 [Example 94, 2-((3,5-difluoro-4-((6-(trifluoromethyl)pyridin-3-yl)oxy)benzyl)oxy)-6,7-dihydro-4H-pyrimido[6,1-a]isoquinolin-4-one] | 1 nM
7 | O=c1nc(OCc2ccc(Oc3cnc(C(F)(F)F)nc3)c(F)c2)cc2n1CCc1cc(F)ccc1-2 [Example 98, 9-fluoro-2-((3-fluoro-4-((2-(trifluoromethyl)pyrimidin-5-yl)oxy)benzyl)oxy)-6,7-dihydro-4H-pyrimido[6,1-a]isoquinolin-4-one] | ≤ 0.501 nM
8 | N#Cc1cc(COc2cc3n(c(=O)n2)CCc2ccccc2-3)ccc1Oc1ccc(C(F)(F)F)nc1 [Example 91, 5-(((4-oxo-6,7-dihydro-4H-pyrimido[6,1-a]isoquinolin-2-yl)oxy)methyl)-2-((6-(trifluoro-methyl)pyridin-3-yl)oxy)benzonitrile] | 1 nM
9 | COc1ccc2c(c1)CCn1c-2cc(OCc2ccc(Oc3ccc(C(F)(F)F)nc3)c(C#N)c2)nc1=O [Example E36, 5-({[9-(Methyloxy)-4-oxo-6,7-dihydro-4H-pyrimido[6,1-a]isoquinolin-2-yl]oxy}methyl)-2-{[6-(trifluoromethyl)-3-pyridinyl]oxy}benzonitrile] | 1 nM
10 | COc1ccc2c(c1)CCn1c-2cc(Oc2ccc(Oc3cccc(C(F)(F)F)c3)c(C#N)c2)nc1=O [Example E1, 5-((9-Methoxy-4-oxo-6,7-dihydro-4H-pyrimido[6,1-a]isoquinolin-2-yl)oxy)-2-(3-(trifluoromethyl)phenoxy)benzonitrile] | ≤ 0.501 nM
11 | N#Cc1cc(COc2cc3n(c(=O)n2)CCc2cc(F)ccc2-3)ccc1Oc1ccc(Cl)c(C(F)(F)F)c1 [Example 92, 2-(4-chloro-3-(trifluoromethyl)phenoxy)-5-(((9-fluoro-4-oxo-6,7-dihydro-4H-pyrimido[6,1-a]isoquinolin-2-yl)oxy)methyl)benzonitrile] | 0.794 nM
12 | N#Cc1cc(COc2cc3n(c(=O)n2)CCc2cc(F)ccc2-3)ccc1Oc1cccc(C(F)(F)F)c1 [Example 89, 5-(((9-fluoro-4-oxo-6,7-dihydro-4H-pyrimido[6,1-a]isoquinolin-2-yl)oxy)methyl)-2-(3-(trifluoromethyl)phenoxy)benzonitrile] | 3.16 nM
